In patent publication US10883142B2, “Risk assessment for phenytoin-induced adverse drug reactions” (priority 2011, dated 2021):

Assays:
[1] = Phenytoin plasma concentration during ADR onset, HPLC analysis of patients' plasma; format: in vivo, human
Description: In this study, the phenytoin concentrations during ADR onset were determined from patients' plasma by HPLC analysis and estimated by non-linear pharmacokinetics formula: […]
Therapeutic levels of phenytoin are usually between 10-20 μg/ml. […] We also compared the phenytoin plasma levels of patients who carried CYP2Cs variants. […] Defective metabolism of phenytoin may increase the risk of drug accumulation, and leads to its risk to induce severe hypersensitivity reactions, such as SJS/TEN and DRESS.

[2] = normal therapeutic range, plasma; cited from earlier work
[3] = patients who received phenytoin; cited from earlier work

## O=C1NC(=O)C(c2ccccc2)(c2ccccc2)N1 [phenytoin]
[1]; 5 phenytoin-ADRs patients who carry CYP2C9*3 variant (of 23 analysed)
  phenytoin concentrations: higher than 20 μg/ml
[1]; patients with phenytoin-SJS/TEN, P=0.006 vs. tolerant control
  phenytoin plasma levels: 40 to 50 µg/mL
[1]; tolerant control patients, after taking drug
  phenytoin plasma levels: 5 to 15 µg/mL
[2]
  therapeutic levels of phenytoin: 10 to 20 µg/mL
[3]
  patients who developed hypersensitivity reactions: more than 19%
